Measured values reported in patent publication US20260001875A1, “AMINOPYRIMIDINYL DERIVATIVES FOR THE TREATMENT OF PARKINSON'S DISEASE” (UNIVERSITY OF DUNDEE, priority 2022, published 2026).
Where two headings read alike, the source gives them in different places.

Assays:
LRRK2^G2019S = molecular target: T1, LRRK2^G2019S (Mus musculus, UniProt Q5S006, G2019S); test: Western blot LRRK2 degradation in LRRK2^G2019S MEFs; format: cell-based; conditions: dose response
T1 construct: endogenous in cells; host or cells: LRRK2[G2019S] mouse embryonic fibroblasts (MEFs)
T1 sequence (Q5S006 whole entry G2019S): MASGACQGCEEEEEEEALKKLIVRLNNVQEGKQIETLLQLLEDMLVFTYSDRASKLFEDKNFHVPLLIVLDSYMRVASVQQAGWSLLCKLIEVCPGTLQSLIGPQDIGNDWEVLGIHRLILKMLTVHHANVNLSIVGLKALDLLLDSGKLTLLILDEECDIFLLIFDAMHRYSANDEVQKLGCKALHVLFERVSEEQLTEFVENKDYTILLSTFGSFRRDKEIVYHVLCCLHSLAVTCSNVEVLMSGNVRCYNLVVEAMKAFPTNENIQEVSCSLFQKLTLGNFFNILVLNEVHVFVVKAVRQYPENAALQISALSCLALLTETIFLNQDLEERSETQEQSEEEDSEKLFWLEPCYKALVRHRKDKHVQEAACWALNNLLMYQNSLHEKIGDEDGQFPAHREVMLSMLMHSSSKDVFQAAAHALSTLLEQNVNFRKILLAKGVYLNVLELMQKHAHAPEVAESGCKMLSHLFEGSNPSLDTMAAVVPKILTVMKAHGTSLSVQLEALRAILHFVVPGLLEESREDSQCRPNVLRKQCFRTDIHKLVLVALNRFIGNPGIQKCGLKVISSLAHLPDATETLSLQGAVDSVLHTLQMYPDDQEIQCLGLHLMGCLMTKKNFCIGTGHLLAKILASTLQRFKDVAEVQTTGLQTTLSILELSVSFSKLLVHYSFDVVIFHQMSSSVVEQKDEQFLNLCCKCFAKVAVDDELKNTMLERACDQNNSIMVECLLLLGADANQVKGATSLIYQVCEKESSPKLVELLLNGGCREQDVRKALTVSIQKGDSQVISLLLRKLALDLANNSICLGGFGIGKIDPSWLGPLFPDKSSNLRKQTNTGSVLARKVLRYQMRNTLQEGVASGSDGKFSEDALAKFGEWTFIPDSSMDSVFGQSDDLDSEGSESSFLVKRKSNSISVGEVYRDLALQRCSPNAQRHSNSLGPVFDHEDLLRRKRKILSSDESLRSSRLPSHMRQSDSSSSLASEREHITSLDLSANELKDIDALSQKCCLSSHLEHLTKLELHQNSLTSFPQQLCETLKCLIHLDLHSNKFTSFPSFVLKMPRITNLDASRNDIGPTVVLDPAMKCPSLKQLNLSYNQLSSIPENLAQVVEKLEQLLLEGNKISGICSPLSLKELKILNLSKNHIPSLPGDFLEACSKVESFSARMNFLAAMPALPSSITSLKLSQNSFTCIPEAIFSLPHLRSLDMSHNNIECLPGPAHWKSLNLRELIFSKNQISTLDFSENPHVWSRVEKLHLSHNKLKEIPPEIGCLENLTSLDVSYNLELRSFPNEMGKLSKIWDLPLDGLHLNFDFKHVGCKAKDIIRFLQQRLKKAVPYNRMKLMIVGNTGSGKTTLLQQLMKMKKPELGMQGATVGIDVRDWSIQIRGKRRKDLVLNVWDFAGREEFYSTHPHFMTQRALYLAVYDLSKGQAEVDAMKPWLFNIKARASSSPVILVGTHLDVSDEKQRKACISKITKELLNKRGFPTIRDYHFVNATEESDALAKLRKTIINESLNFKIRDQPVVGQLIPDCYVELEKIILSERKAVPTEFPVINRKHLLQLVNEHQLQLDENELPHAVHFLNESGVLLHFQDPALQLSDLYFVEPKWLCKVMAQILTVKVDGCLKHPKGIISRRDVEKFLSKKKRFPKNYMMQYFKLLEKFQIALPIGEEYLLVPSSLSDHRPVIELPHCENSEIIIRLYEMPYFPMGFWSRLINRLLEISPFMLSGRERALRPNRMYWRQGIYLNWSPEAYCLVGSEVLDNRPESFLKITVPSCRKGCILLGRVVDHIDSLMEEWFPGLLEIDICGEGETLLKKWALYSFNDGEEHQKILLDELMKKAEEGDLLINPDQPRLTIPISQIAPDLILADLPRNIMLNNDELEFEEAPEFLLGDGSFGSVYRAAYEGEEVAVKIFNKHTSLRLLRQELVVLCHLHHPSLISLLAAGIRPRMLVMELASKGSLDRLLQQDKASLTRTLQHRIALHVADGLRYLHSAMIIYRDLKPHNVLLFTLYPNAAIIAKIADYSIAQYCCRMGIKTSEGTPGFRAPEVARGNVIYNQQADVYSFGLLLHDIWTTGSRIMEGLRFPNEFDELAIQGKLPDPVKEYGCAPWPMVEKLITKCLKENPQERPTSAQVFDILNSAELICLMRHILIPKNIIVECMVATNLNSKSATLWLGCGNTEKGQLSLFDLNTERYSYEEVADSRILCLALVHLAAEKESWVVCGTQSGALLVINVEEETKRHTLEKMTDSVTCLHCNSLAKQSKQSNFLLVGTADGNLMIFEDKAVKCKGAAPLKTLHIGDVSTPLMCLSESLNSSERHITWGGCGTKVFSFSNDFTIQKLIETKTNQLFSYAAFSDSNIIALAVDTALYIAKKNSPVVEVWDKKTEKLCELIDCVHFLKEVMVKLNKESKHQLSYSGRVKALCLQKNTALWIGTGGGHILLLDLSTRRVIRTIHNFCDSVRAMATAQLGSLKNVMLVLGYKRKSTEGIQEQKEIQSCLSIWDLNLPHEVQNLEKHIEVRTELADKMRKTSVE

VHL = VHL (Homo sapiens, UniProt P40337); test: NanoBRET VHL target engagement in HEK293 cells; format: binding; design: host or cells: HEK293; conditions: for IC50: read-out: IC50 VHL tracer displacement
VHL, sequence (P40337 whole entry, the tested form may be a part): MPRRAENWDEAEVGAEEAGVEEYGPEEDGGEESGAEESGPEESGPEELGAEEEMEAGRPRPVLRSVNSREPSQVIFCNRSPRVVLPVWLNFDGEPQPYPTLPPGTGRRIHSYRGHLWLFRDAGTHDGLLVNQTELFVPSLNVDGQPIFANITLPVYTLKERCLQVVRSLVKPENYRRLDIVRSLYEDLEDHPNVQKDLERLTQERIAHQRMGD
Experimental: For VHL and LRRK2 target engagement experiments in live and permeabilized cells, the HEK293 cells were transfected with VHL-NanoLuc fusion vector (Promega, N275A) or LRRK2-NanoLuc fusion vector (Promega, NV3401) following Promega's protocol and seeded into white 384-well plate (Corning3570) at a density of 6000 cells/well. To measure NanoBRET in permeabilized cells, the cells were treated with 50 μg/mL digitonin (Sigma, D141), 125 nM VHL tracer/125 nM LRRK2 tracer, testing compounds at decreasing concentrations (12 concentrations with 2-fold serial dilution starting from 33 μM), and NanoBRET NanoGlo Substrate (Promega) at concentration recommended by the manufacturer's protocol. In the maximum signal control samples (DMSO control), DMSO was added instead of testing compounds. In the minimum signal control samples (no tracer control), DMSO and tracer dilution buffer were used to replace testing compounds and tracer separately. The filtered luminescence was measured within 10 min following addition of the substrate on a GloMax Discover microplate reader (Promega) or a PHERAstar (BMG LABTECH) plate reader equipped with a 450-nm bandpass filter (donor) and a 600-nm long pass filter (acceptor). To measure NanoBRET in live cells, the cells were treated with 250 nM VHL tracer/500 nM LRRK2 tracer, testing compounds at testing compounds at decreasing concentrations (12 concentrations with 2-fold serial dilution starting from 33 μM) and incubated at 37° C. in an incubator for 2 h. The plates were then cooled down and added with NanoBRET NanoGlo Substrate and Extracellular NanoLuc Inhibitor (Promega, N2160) before performing the same NanoBRET reading as the permeabilized mode on plate readers. NanoBRET ratio of each well was expressed in milliBRET according to the equation: mBRET=[(signal at […]/signal at 450 nM)−(signal at 610 nMno tracer control/signal at 450 nMno tracer control)]×1000. The fractional occupancy was calculated according to the equation: fractional occupancy=(mBRETtesting compound−mBRETno tracer control)/(mBRETDMSO control−mBRETno tracer control).

| Compound | DC50 (LRRK2^G2019S; 4 h treatment) | Dmax on G2019S MEFs (LRRK2^G2019S; 4 h treatment) | IC50 (VHL; live HEK293 cells) | IC50 (VHL; permeabilized HEK293 cells) | Dmax on G2019S MEFs (LRRK2^G2019S; 24 h treatment) | IC50 ratio IC50, per/IC50, live (VHL engagement) (VHL; permeabilized vs live mode) | VHL tracer displacement (in words) (VHL; permeabilized HEK293 cells) |
| --- | --- | --- | --- | --- | --- | --- | --- |
| CNc1nc(Nc2ccc(C(=O)N3CCN(C[C@H]4CC[C@@H](CSC(C)(C)[C@H](NC(=O)C5(F)CC5)C(=O)N5C[C@H](O)CC5C(=O)NCc5ccc(-c6scnc6C)cc5)CC4)CC3)cc2OC)ncc1Cl (stereo partly drawn) [XL01134] | 7 nM | 78% | 880 nM | 780 nM |  |  |  |
| CNc1nc(Nc2ccc(C(=O)N3CCN(CCOCCOCCSC(C)(C)[C@H](NC(=O)C4(F)CC4)C(=O)N4C[C@H](O)C[C@H]4C(=O)NCc4ccc(-c5scnc5C)cc4)CC3)cc2OC)ncc1Cl [SD75, (2S,4R)-1-((R)-3-((2-(2-(2-(4-(4-((5-chloro-4-(methylamino)pyrimidin-2-yl)amino)-3-methoxybenzoyl)piperazin-1-yl)ethoxy)ethoxy)ethyl)thio)-2-(1-fluorocyclopropane-1-carboxamido)-3-methylbutanoyl)-4-hydroxy-N-(4-(4-methylthiazol-5-yl)benzyl)pyrrolidine-2-carboxamide] |  |  | 2500 nM | 1900 nM | 43% | 0.76 |  |
| CNc1nc(Nc2ccc(C(=O)N3CCN(C[C@H]4CC[C@H](CSC(C)(C)[C@H](NC(=O)C5(F)CC5)C(=O)N5C[C@H](O)CC5C(=O)NCc5ccc(-c6scnc6C)cc5)CC4)CC3)cc2OC)ncc1Cl (stereo partly drawn) [XL01126, (2S,4R)-1-((R)-3-((((1R,4R)-4-((4-(4-((5-chloro-4-(methylamino)pyrimidin-2-yl)amino)-3-methoxybenzoyl)piperazin-1-yl)methyl)cyclohexyl)methyl)thio)-2-(1-fluorocyclopropane-1-carboxamido)-3-methylbutanoyl)-4-hydroxy-N-(4-(4-methylthiazol-5-yl)benzyl)pyrrolidine-2-carboxamide] | 14 nM | 80-90% | 10100 nM |  |  |  | poor displacement |
